# Laboratory results from publication PMC4865820, “Branched Peptide, B2088, Disrupts the Supramolecular Organization of Lipopolysaccharides and Sensitizes the Gram-negative Bacteria” (Scientific Reports, 2016).
# Columns and labels:
# [1] = test system: P. aeruginosa DR4877/07; assay: microbe, parasite or virus in culture; details: for MIC: Pseudomonas aeruginosa, DR4877/07, 24 h, read-out: MIC of antibiotics
# Protocol: MIC of each peptide was determined using the microdilution method in a 96 well microtitre plates (SPL Life Sciences Co., Ltd, Korea). Two-fold serial dilutions of each peptide in Mueller-Hinton Broth (MHB) was prepared from a 1 mg/ml stock solution of the peptide in the same broth, to obtain a final concentration in the range of 0.0976–50 μg/ml in each well. Bacterial suspensions (P. aeruginosa ATCC 27853, P. aeruginosa 4877, P. aeruginosa 23155, K. pneumoniae ATCC 10031 and K. pneumoniae 4299) were prepared by suspending the overnight cultured bacteria in saline and adjusting the inoculum to ~10^8 colony forming units (CFU) per ml. A further 150-fold dilution was then prepared in MHB to achieve a final cell density of 10^5–10^6 CFU/ml. In each well, 100 μl of inoculum was mixed with the equal volume of peptides at their 2× concentration. Positive and negative controls contained 200 μl of inoculum (without any peptide) and broth alone (no peptide/inoculum) respectively. Another negative control in which MHB containing 200 μl of peptide alone in its highest concentration tested (50 μg/ml) was also included to ensure that the optical density measured in the test wells was not due to turbidity of the peptides in solution. The 96 well polystyrene plates were then incubated at 37 °C for 24 h and the optical density at 600 nm (OD600) was measured every 30 min continuously using a TECAN microplate reader (TECAN Infinite 200, Austria).
# [2] = test system: P. aeruginosa DR4877/07; assay type: cell-based; details: for FICI of B2088-antibiotic combination: lowest FICI reported, two independent duplicates
# Protocol: The synergism between peptides with conventional antibiotics was evaluated using checkerboard assays. For a comparison polymyxin B (PMB) was also tested against each antibiotic. From their stock solutions, two-fold dilutions of each antibiotic and peptide to 1× MIC were prepared in MHB. 50 μl of each peptide concentration was added into the wells of a 96-well polystyrene plates (SPL Life Sciences Co. Ltd, Korea) in a horizontal orientation and the same volume of each antibiotic concentration were then added in a vertical orientation. Bacterial suspensions were prepared in MHB to yield final cell density of ~10^6 CFU/ml and 100 μl of bacterial suspension was mixed with each peptide-antibiotic combinations. This procedure was repeated for wells containing 200 μl of peptide alone and 200 μl of antibiotic alone in various concentrations. The positive and negative controls contained 200 μl of inoculum and MHB alone respectively. The plates were incubated at 37 °C for 24 hours and the optical density at 600 nm (OD600) was monitored as before. Fractional inhibitory concentration index (FICI) for all antibiotic- peptide combinations was calculated through the summation of (MIC of peptide in the combination/ MIC of peptide alone) and (MIC of antibiotics in combination/MIC of antibiotic alone). The experiments were performed in two independent duplicates and the combinations that gave the lowest FICI values was reported.
# [3] = test system: LPS (E. coli serotype 055:B5); assay: BODIPY TR cadaverine (BC) displacement assay with LPS; assay type: binding
# Source text: To investigate the interaction of B2088 with LPS, we performed the BODIPY TR cadaverine (BC) displacement assay reported by Wood et al.[22]. The probe binds to the lipid A part of the LPS with moderate affinity and can be displaced by putative LPS-binding molecules. The method was used to probe the affinity of polycationic molecules and LPS binding proteins. First, we determined the affinity of polymyxin B (PMB), a lipopeptide cyclic antibiotic which has a high affinity for LPS. […] Figure 1a,b show the concentration-dependent displacement of LPS/lipid A-bound BC upon addition of B2088. […] To confirm the importance of branching, we determined the BC50 for a linear retrodimer having the amino acid sequence, […] (Fig. 1d). The determined value was 2-fold higher (3.9 ± 0.1 μM) than that of B2088, confirming a weaker affinity of the linear peptide.
# The BC displacement assay was used to determine the ability of each peptide to bind to LPS. The florescent probe, BODIPY TR cadaverine (BC) was purchased from Molecular Probes/ Invitrogen (USA). A stock solution containing 1 mg/ml of LPS (E. coli serotype 055:B5) was prepared in dimethyl sulfoxide (DMSO) and another stock solution containing 1 mg/ml of BC dye was prepared in 5 mM HEPES buffer (pH 7.4). The optimum saturation concentration of BC:LPS ratio was standardized following the protocol provided by Wood et al. (22). From the BC stock, 240 μl was mixed with 500 μl from the LPS stock solution in 5 mM HEPES buffer (pH 7.4) to prepare 20 ml of BC:LPS mixture. Two-fold serial dilutions of each peptide in 5 mM HEPES buffer (pH 7.4) was prepared from their 1 mg/ml stock solutions to obtain a final range of 0.02–25.6 μM. The BC:LPS mixture was added to 100 μl of each peptide congener in a 1:1 ratio in each well of a 96-well black Costar™ polystyrene microtitre plate (Corning Incorporated, NY, USA). The maximum fluorescence intensity (Fmax) was determined using a mixture containing 100 μl PMB (50 μg/ml) and 100 μl BC:LPS solution, as PMB is considered the ‘gold standard’ for LPS-sequestering agents. The minimum fluorescence intensity (F0) was measured using 200 μl of BC:LPS mixture to determine the background noise for this experiment. Fluorescence measurements for each peptide (F) were determined using a microplate reader (Model: TECAN Infinite 200, Austria) with excitation and emission wavelengths set at 580 nm and 620 nm respectively. The percentage of BC displacement was then calculated using the formula: […]
# The experiments were performed in duplicates and the effective concentration required for 50% displacement of BC dye (ED50) from LPS with respect to PMB was determined by curve fitting using Graphpad Prism (CA, USA). A higher ED50 value for the peptide indicates a lower affinity for LPS.
# [4] = MIC of B2088 6.25 μg/ml, MHB, ~10^6 CFU/ml, 37 °C, 24 h
Compound,MIC [1] [µg/mL],"MIC of antibiotics in the presence of ½× sub-MIC of B2088 [2, 4] [µg/mL]",FICI of B2088-antibiotic combination [2],"MIC of antibiotics in the presence of ¼× sub-MIC of B2088 [2, 4] [µg/mL]",further results
O=C(O)c1cn(C2CC2)c2cc(N3CCNCC3)c(F)cc2c1=O [Ciprofloxacin],12.5,–,–,–,–
"CC[C@H]1OC(=O)[C@H](C)[C@@H](O[C@H]2C[C@@](C)(OC)[C@@H](O)[C@H](C)O2)[C@H](C)[C@@H](O[C@@H]2O[C@H](C)C[C@H](N(C)C)[C@H]2O)[C@](C)(O)C[C@@H](C)C(=O)[C@H](C)[C@@H](O)[C@]1(C)O [Erythromycin, reference compound]",100,50,1.0,–,–
"C[C@@H](O)[C@H]1C(=O)N2C(C(=O)O)=C(SCCN=CN)C[C@H]12 [Imipenem, reference compound]",0.78,0.0975,–,0.195,–
"NC[C@H]1O[C@H](O[C@H]2[C@H](O)[C@@H](O[C@H]3O[C@H](CO)[C@@H](O)[C@H](N)[C@H]3O)[C@H](N)C[C@@H]2N)[C@H](O)[C@@H](O)[C@@H]1O [Kanamycin, reference compound]",–,800,0.75,1600,"Fold decrease in the MIC of antibiotics at sub-lethal/sub-inhibitory concentrations of B2088 ([2]; multidrug resistant P. aeruginosa 4877): 4 fold; MIC of antibiotics ([1]; antibiotic alone, MHB, 37 °C, 24 h, OD600): 3200 µg/mL"
"C[C@H]1COc2c(N3CCN(C)CC3)c(F)cc3c(=O)c(C(=O)O)cn1c23 [Levofloxacin, reference compound]",50,12.5,0.75,–,–
"CCn1cc(C(=O)O)c(=O)c2ccc(C)nc21 [Nalidixic acid, reference compound]",3200,400,0.63,–,FICI of polymyxin B-antibiotic combination [2]: 1.0
"[H]/N=C(/N)N[C@H]1[C@H](O)[C@@H](O)[C@H](O[C@@H]2O[C@@H](C)[C@](O)(C=O)[C@H]2O[C@@H]2O[C@@H](CO)[C@H](O)[C@@H](O)[C@@H]2NC)[C@@H](N/C(N)=N\[H])[C@@H]1O [Streptomycin, reference compound]",200,50,0.75,100,"MIC of antibiotics in the presence of ⅛× sub-MIC of B2088 [2, 4]: 100 µg/mL"
RGRKVVRRKKRRVVKRGR [linear retrodimer],–,–,–,–,"FICI with chloramphenicol ([2]; additive effect): 1; FICI with gatifloxacin ([2]; additive effect): 1; FICI with tobramycin ([2]; additive effect): 1; ED50 (50% displacement of BC dye from LPS; also called BC50) ([3]; 5 mM HEPES pH 7.4, fluorescence ex 580/em 620 nm, with respect to PMB, duplicates): 3.9 ± 0.1 µM; BC50 fold higher than that of B2088 ([3]; LPS-bound BC): 2 fold"
